Measured values: US20110071150A1 (priority 2009, published 2011)

Tested on: Jurkat IL-2 Production
Experiment: Jurkat IL-2 Production Assay
Type: cell-based
Settings: Homo sapiens, Jurkat cell (ATCC), 18-20 h incubation, PHA 5 μg/mL with 1% FBS, or PMA/Ionomycin with 30% FBS (table does not say which)
Procedure, shortened: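 Jurkat cells were exposed to compound (0.25% DMSO final) for 10 min, then stimulated for 18–20 h at 37 °C. The 1% FBS condition used 5 μg/mL PHA; the high-serum condition (30% FBS) used 50 ng/mL PMA plus 500 ng/mL ionomycin. IC50 was derived from IL-2 production.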

| IC50 | Structure (SMILES) |
| --- | --- |
| 286 nM | Cc1cc(C#N)ccc1-c1ccc2[nH]c(-c3cscc3C)cc2c1 [Example 149, methyl-4-(2-(4-methylthiophen-3-yl)-1H-indol-5-yl)benzonitrile] |
| 176 nM | COc1cc(-c2ncco2)ccc1-c1ccc2[nH]c(-c3c(F)cccc3F)cc2c1 [Example 103, 2-(2,6-Difluoro-phenyl)-5-(2-methoxy-4-oxazol-2-yl-phenyl)-1H-indole] |
| 105 nM | COc1cc(C#N)ccc1-c1ccc2[nH]c(-c3cnccc3C)cc2c1 [Example 213] |
| 283 nM | COc1cc(F)c(-c2cc3cc(-c4ccc(C#N)cc4C)ccc3[nH]2)c(F)c1 [Example 135, 4-(2-(2,6-difluoro-4-methoxyphenyl)-1H-indol-5-yl)-3-methylbenzonitrile] |
| 518 nM | CNc1cc(C)c(-c2ccc3[nH]c(-c4c(F)cccc4Cl)cc3c2)cn1 [Example 166, 5-(2-(2-chloro-6-fluorophenyl)-1H-indol-5-yl)-N,4-dimethylpyridin-2-amine] |
| 148 nM | Cn1nc(-c2ccccn2)nc1-c1ccc2[nH]c(-c3c(F)cccc3Cl)cc2c1 [Example 184, 2-(2-Chloro-6-fluoro-phenyl)-5-(2-methyl-5-pyridin-2-yl-2H-[1,2,4]-triazol-3-yl)-1H-indole] |
| 19 nM | Cc1nnc(-c2cc(C)c(-c3ccc4[nH]c(-c5c(F)cccc5Cl)cc4c3)cn2)o1 [Example 120, 2-(2-Chloro-6-fluoro-phenyl)-5-[4-methyl-6-(5-methyl-[1,3,4]oxadiazol-2-yl)-pyridin-3-yl]-1H-indole] |
| 24 nM | Cc1cccc(F)c1-c1cc2cc(-c3nc(-c4cccnc4)sc3C)ccc2[nH]1 [Example 220, 2-(2-Fluoro-6-methyl-phenyl)-5-(5-methyl-2-pyridin-3-yl-thiazol-4-yl)-1H-indole] |

The next lines start with the compound.

| Structure (SMILES) | IC50 |
| --- | --- |
| Cc1sc(-c2cccnc2)nc1-c1ccc2[nH]c(-c3ccncc3F)cc2c1 [Example 64, 2-(3-Fluoro-pyridin-4-yl)-5-(5-methyl-2-pyridin-3-yl-thiazol-4-yl)-1H-indole] | 81 nM |
| Cc1sc(-c2ccncc2)nc1-c1ccc2[nH]c(-c3ccccc3Cl)cc2c1 [Example 22, 2-(2-Chloro-phenyl)-5-(5-methyl-2-pyridin-4-yl-thiazol-4-yl)-1H-indole] | 150 nM |
| Cc1ncccc1-c1cc2cc(-c3sc(-c4ccccc4)nc3C)ccc2[nH]1 [Example 8, 5-(4-Methyl-2-phenyl-thiazol-5-yl)-2-(2-methyl-pyridin-3-yl)-1H-indole] | 287 nM |
| Cc1cc(F)ccc1-c1ccc2[nH]c(-c3c(F)cccc3F)cc2c1 [Example 91, 2-(2,6-Difluoro-phenyl)-5-(4-fluoro-2-methyl-phenyl)-1H-indole] | 456 nM |
| Cn1nc(C2CC2)cc1-c1ccc2[nH]c(-c3ccccc3Cl)cc2c1 [Example 61, 2-(2-Chloro-phenyl)-5-(5-cyclopropyl-2-methyl-2H-pyrazol-3-yl)-1H-indole] | 848 nM |
| Fc1cccc(Cl)c1-c1cc2cc(-c3ccc(C(F)(F)F)cc3Cl)ccc2[nH]1 [Example 56, 2-(2-Chloro-6-fluoro-phenyl)-5-(2-chloro-4-trifluoromethyl-phenyl)-1H-indole] | 132 nM |
| Cc1sc(-c2cccnc2)nc1-c1ccc2[nH]c(-c3c(F)cccc3Cl)cc2c1 [Example 50, 2-(2-Chloro-6-fluoro-phenyl)-5-(5-methyl-2-pyridin-3-yl-thiazol-4-yl)-1H-indole] | 13 nM |
| Cc1noc(C)c1-c1cc2cc(-c3cc(C(F)(F)F)nn3C)ccc2[nH]1 [Example 45, 2-(3,5-Dimethyl-isoxazol-4-yl)-5-(2-methyl-5-trifluoromethyl-2H-pyrazol-3-yl)-1H-indole] | 375 nM |
| Cn1nc(-c2ccccn2)cc1-c1ccc2[nH]c(-c3cc(F)ccc3Cl)cc2c1 [Example 82, 2-(2-Chloro-5-fluoro-phenyl)-5-(2-methyl-5-pyridin-2-yl-2H-pyrazol-3-yl)-1H-indole] | 367 nM |
